PMC9133036 (Nature Communications, 2022)
Values joined by “and” are separate entries in the source; they are usually repeats but may differ in a detail not shown here. Equal values may be shown once.

Tests used:
OX2R T111A = target: T1, OX2R T111A (Homo sapiens, UniProt O43614, T111A); assay: IP accumulation assay, OX2R T111A; format: cell-based; details: for % IP accumulation: listed as OXB
T1 construct: FLAG; expressed in transfected cells; host or cells: HEK293
T1 sequence (O43614 1-444 T111A): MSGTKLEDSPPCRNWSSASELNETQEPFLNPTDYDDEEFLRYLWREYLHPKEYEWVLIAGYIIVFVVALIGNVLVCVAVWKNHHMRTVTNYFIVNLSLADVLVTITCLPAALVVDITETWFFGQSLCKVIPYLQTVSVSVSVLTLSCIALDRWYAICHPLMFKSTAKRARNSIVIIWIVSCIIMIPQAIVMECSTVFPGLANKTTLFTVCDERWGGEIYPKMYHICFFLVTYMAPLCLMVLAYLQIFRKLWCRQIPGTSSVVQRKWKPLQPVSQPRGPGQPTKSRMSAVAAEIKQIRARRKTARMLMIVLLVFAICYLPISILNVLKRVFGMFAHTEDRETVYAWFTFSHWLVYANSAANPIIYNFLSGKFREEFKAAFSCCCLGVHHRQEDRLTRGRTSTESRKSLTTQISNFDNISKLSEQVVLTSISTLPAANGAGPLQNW
From the text: (§1) The IP assay was adapted from a prior precedent. HEK293 cells were maintained in DMEM-high glucose (Millipore Sigma) supplemented with 5% fetal bovine serum (Corning) and penicillin-streptomycin (Millipore Sigma). Receptor constructs used were the full-length wild-type (or mutant) human OX1R and OX2R sequences cloned into pCDNA3. To enhance the Emax in the IP assay, a plasmid encoding full-length human Gαq subunit[66] was co-transfected into HEK293 cells with plasmids encoding orexin receptor constructs using Lipofectamine 3000 (Thermo Fisher). 24 h after transfection, the cells were plated on poly-D-lysine coated (Millipore Sigma) tissue culture-treated 96 well white plates with clear bottoms (Perkin Elmer) at 30,000 cells per well in Inositol-free DMEM (MP Biomedicals) supplemented with 5% fetal bovine serum, 4 mM L-glutamine (Millipore Sigma), penicillin-streptomycin, and about 5 uCi (5 ul) per ml myo-[2-3H] inositol (Perkin Elmer). The following day, the media was replaced with agonists that were diluted in HBSS (Millipore Sigma) containing 10 mM lithium chloride (Millipore Sigma) and incubated at 37 °C for 45 min. Then agonists were removed and cells were lysed on ice for 30 min with 10 mM formic acid (Millipore Sigma). 1.25 mg of poly-lysine coated YSI SPA beads (Perkin Elmer) was added to each well. The plates were mixed on an orbital shaker for 30 min. The plates were read on a MicroBeta scintillation counter (Perkin Elmer) the following day. IP accumulation assays on different constructs were performed in n ≥ 3 independent experiments (each done in duplicate), where n is shown in Supplementary Table 2.

OX2R1-406 = target: T2, OX2R1-406 (Homo sapiens, UniProt O43614); assay: IP accumulation assay, C-terminally truncated OX2R1-406; format: cell-based; details: for % IP accumulation: OX2R C25 short; for Emax: relative to OX2R WT with the same ligand;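 for % IP accumulation: 100% is the full-length wild-type OX2R maximal IP response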
T2 construct: the receptor construct contained residues 1–406 of wild-type human OX2R; expressed in transfected cells; host or cells: HEK293
T2 sequence (O43614 1-406): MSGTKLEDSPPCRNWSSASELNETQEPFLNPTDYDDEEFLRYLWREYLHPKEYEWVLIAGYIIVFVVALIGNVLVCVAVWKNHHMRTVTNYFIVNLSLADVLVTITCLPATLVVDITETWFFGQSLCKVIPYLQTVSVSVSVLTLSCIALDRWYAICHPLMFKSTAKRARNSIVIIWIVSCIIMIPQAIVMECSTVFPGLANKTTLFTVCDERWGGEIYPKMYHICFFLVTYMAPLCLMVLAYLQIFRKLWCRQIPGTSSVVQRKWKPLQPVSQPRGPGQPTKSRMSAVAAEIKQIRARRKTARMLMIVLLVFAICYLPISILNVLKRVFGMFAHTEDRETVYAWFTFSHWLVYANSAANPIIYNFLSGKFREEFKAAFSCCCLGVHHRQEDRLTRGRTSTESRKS
Method: The cloning, expression, purification, cryo-EM data collection, and structure determination for the two OX2R-G protein complexes described in this paper were carried out independently. For the OX2R-mGsqiN complex the receptor construct contained residues 1–406 of wild-type human OX2R (OX2R^1–406). […] The resulting construct was cloned into a modified pFastBac (ThermoFisher) baculovirus expression vector with the HA signal sequence followed by a FLAG tag at the N-terminus. We were unable to isolate a stable complex between OX2R and full-length wild-type Gαq using the co-expression and purification strategy described below. Instead, an engineered Gαq construct called mGαsqiN was made by modifying the chimeric Gα protein ‘mini-Gs/q71’ previously described. Briefly, the linker […] was deleted and residues 1–27 at the N terminus was replaced by residues 1–30 of Gαi1. A second pFastBac baculovirus was made with this mini-GαqiN gene. An additional pFastBac-Dual baculovirus was made with human Gβ1 and human […] genes. An 8xHis tag was placed at the N-terminus of […]. […] After 48 h, cells were harvested and stored at −80 °C.
as §1

OX1R S103T/A127T = target: T3, OX1R S103T/A127T (Homo sapiens, UniProt O43613, A127T/S103T); assay: IP accumulation assay, OX1R S103T/A127T; format: cell-based
T3 construct: FLAG; expressed in transfected cells; host or cells: HEK293
T3 sequence (O43613 1-425 S103T/A127T): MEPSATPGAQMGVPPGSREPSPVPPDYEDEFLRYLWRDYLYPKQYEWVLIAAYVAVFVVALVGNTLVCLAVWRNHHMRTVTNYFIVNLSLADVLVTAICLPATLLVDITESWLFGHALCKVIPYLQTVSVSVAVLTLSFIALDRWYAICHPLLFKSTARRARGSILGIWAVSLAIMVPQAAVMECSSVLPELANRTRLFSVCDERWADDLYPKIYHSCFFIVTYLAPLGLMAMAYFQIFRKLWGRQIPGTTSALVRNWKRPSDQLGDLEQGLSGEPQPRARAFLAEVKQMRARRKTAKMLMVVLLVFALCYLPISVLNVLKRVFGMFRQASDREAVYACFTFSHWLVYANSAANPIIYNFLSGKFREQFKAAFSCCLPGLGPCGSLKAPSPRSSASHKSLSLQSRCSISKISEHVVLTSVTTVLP
From the text: as §1

OX2R = details: cited from earlier work

COC(=O)N1CCC[C@H](NS(C)(=O)=O)[C@@H]1CO[C@H]1CC[C@@H](c2ccccc2)CC1 [TAK-925, methyl (2R,3S)−3-[(methylsulfonyl)amino]−2-{[(cis−4-phenylcyclohexyl)oxy]methyl}piperidine-1-carboxylate] showed an EC50 (OX2R T111A; IP accumulation) of 2100 nM, an Emax (OX2R T111A; relative to OX2R WT/TAK-925) of 53 and an EC50 (OX2R1-406; IP accumulation) of 5.4 nM. The “% IP accumulation” value (OX2R1-406; TAK-925 conc (log, M) -7.39) was 102.09% and 80.64% and 87.71% and 69.65% and 70.45% and 93.38%, the “% IP accumulation” value (OX2R1-406; TAK-925 conc (log, M) -7.86) was 87.29% and 59.28% and 70.66% and 54.93% and 62.49% and 77.19% and the Emax (OX2R1-406) was 100. The activation at 100 µM (OX1R S103T/A127T; 0.75 h, TAK-925 conc (log, M) -4.00) was 90.6%, the activation at 33.1 µM (OX1R S103T/A127T; 0.75 h, TAK-925 conc (log, M) -4.48) was 102% and the activation at 11.2 µM (OX1R S103T/A127T; 0.75 h, TAK-925 conc (log, M) -4.95) was 99.6%. The activation at 3.72 µM (OX1R S103T/A127T; 0.75 h, TAK-925 conc (log, M) -5.43) was 94.2%, the activation at 1.23 µM (OX1R S103T/A127T; 0.75 h, TAK-925 conc (log, M) -5.91) was 81.6% and the activation at 0.407 µM (OX1R S103T/A127T; 0.75 h, TAK-925 conc (log, M) -6.39) was 58.2%. For the same molecule, the activation at 0.138 µM (OX1R S103T/A127T; 0.75 h, TAK-925 conc (log, M) -6.86) was 26.9%, the activation at 0.0151 µM (OX1R S103T/A127T; 0.75 h, TAK-925 conc (log, M) -7.82) was 6.39% and the EC50 (OX1R S103T/A127T; IP accumulation) was 300 nM. For the same molecule, the Emax (OX1R S103T/A127T; normalized to OX1R S103T/A127T Emax) was 100 and the “potency for OX2R activation” value (OX2R) was “low-nanomolar”.

For orexin B, the “% IP accumulation” value (OX2R T111A; OXB conc (log, M) -6.95) was 23.30% and 22.94% and 22.04%, the “% IP accumulation” value (OX2R T111A; OXB conc (log, M) -7.43) was 18.33% and 16.23% and 14.57% and the “% IP accumulation” value (OX2R T111A; OXB conc (log, M) -7.91) was 15.27% and 13.44% and 11.80%. The “% IP accumulation” value (OX2R1-406; OXB conc (log, M) -6.95, listed as OXB) was 116.05% and 97.72% and 102.67% and 64.00% and 80.15% and 76.35% and 110.96%, the “% IP accumulation” value (OX2R1-406; OXB conc (log, M) -7.43, listed as OXB) was 91.34% and 86.13% and 87.29% and 57.27% and 82.96% and 71.01% and 111.84% and the “% IP accumulation” value (OX2R1-406; OXB conc (log, M) -7.91, listed as OXB) was 79.86% and 83.63% and 74.72% and 64.39% and 71.59% and 62.47% and 94.62%. For the same molecule, the “% IP accumulation” value (OX2R1-406; OXB conc (log, M) -8.39, listed as OXB) was 46.18% and 59.23% and 44.98% and 53.61% and 63.91% and 47.69% and 72.05%, the “% IP accumulation” value (OX2R1-406; OXB conc (log, M) -9.82, listed as OXB) was 4.24% and 6.17% and 0.00% and 5.40% and 1.80% and 6.02% and 6.79% and the “% IP accumulation” value (OX2R1-406; OXB conc (log, M) -10.29, listed as OXB) was 0.00% and 3.23%. The Emax (OX2R1-406) was 100.
